Laboratory results reported in ChEMBL document CHEMBL1201862, “PubChem BioAssay data set” (2004).
Blank lines part the entries; values can stand above or below the molecule they belong to. Active and inactive are the calls of the source.

Assays:
[1] = cells; assay type: functional, cell-based
[2] = biological target: T1, Trace amine-associated receptor 1 (Homo sapiens, UniProt Q96RJ0); assay: Fluorescence-based cell-based high throughput dose response assay to identify agonists of the human trace amine associated receptor 1 (TAAR1).; assay type: functional
T1 sequence (Q96RJ0 whole entry): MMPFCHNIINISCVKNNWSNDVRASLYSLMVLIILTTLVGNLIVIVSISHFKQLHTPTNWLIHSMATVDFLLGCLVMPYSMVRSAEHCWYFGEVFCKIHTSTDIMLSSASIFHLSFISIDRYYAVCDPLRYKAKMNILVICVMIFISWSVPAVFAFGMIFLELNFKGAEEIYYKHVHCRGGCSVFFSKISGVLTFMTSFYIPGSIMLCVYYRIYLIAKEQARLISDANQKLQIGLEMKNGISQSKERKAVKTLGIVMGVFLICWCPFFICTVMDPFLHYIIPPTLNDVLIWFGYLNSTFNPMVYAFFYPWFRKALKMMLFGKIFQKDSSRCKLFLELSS

[3] = biological target: T1, Trace amine-associated receptor 1; assay: Counterscreen for agonists of the human trace amine associated receptor 1 (hTAAR1): Fluorescence-based cell-based high throughput dose response assay to identify hTAAR1 agonist that also desensitize TAAR1 receptor response.; assay type: functional
[4] = cells; assay type: functional, cell-based; remark: listed apart in the source
[5] = Vero cell cytotoxicity, dose response, cytotoxicity control for Vif-APOBEC3G degradation inhibitor project, Vero cells (AID 1117358); assay type: functional; details: Human immunodeficiency virus 1, Vero
[6] = system: Escherichia coli; assay: microbe, parasite or virus in culture
[7] = system: Escherichia coli; assay: microbe, parasite or virus in culture; remark: listed apart in the source
[8] = biological target: T2, Short transient receptor potential channel 4 (Mus musculus, UniProt Q9QUQ5); assay: mouse TRPC4 channel activators, dose response, cell-based, HEK293 TRPC4/mu-opioid, Fluo-4 calcium (AID 434937); assay type: functional
T2 sequence (Q9QUQ5 whole entry): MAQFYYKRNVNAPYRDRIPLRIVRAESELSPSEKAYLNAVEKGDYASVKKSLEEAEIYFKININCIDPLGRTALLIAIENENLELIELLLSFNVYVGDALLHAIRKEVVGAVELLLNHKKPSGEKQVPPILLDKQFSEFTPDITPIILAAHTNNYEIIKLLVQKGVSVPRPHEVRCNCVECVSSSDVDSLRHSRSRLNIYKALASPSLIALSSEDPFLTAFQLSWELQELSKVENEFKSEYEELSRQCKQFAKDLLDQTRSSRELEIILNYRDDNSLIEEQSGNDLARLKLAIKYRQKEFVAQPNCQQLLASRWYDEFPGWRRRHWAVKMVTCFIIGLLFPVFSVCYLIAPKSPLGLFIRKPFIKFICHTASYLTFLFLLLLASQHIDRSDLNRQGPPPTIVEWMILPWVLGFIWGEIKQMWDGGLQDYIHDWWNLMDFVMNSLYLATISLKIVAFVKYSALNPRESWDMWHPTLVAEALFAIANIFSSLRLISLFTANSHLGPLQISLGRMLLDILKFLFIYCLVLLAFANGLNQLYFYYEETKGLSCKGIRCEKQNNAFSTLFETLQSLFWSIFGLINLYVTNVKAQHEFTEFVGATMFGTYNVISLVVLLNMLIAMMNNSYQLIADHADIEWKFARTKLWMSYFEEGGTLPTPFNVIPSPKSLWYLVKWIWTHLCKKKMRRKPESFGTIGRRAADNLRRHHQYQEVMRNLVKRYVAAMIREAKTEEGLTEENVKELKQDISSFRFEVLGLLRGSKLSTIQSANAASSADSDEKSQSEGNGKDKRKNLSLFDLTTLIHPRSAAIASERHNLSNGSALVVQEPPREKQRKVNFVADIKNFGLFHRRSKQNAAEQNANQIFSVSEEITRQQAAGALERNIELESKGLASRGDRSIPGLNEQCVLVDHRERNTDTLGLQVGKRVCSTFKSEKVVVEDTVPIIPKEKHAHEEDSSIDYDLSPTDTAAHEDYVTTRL

[9] = biological target: T3, Corticotropin-releasing factor receptor 2/Corticotropin-releasing factor-binding protein (Homo sapiens, UniProt P24387+Q13324); assay: activators of CRF receptor 2 with binding protein – uHTS hits, confirmation (AID 602473); assay type: functional; details: read-out: EC50_Mean
T3 sequence (Q13324 whole entry): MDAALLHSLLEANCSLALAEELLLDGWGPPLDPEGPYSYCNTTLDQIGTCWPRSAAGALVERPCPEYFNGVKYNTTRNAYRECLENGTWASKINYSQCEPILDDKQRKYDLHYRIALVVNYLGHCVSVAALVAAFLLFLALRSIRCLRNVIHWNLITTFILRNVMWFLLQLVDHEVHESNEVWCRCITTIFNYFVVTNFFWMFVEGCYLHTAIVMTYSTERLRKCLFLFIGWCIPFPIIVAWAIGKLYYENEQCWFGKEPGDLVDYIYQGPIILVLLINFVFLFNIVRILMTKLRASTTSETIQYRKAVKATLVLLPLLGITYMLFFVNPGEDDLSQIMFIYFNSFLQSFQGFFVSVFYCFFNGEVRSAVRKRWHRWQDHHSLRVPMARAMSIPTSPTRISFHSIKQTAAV
T3 sequence (P24387 whole entry): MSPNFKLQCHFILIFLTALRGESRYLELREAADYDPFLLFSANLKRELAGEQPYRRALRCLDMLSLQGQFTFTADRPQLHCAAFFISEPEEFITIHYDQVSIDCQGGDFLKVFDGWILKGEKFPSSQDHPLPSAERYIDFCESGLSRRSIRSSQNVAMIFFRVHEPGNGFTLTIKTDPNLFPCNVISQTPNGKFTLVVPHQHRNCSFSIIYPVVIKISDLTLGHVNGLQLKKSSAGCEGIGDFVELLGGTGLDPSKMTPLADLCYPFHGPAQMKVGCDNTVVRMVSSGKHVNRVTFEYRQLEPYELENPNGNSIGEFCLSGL

[10] = biological target: Large T antigen (Simian virus 40, UniProt P03070); assay type: functional, Betapolyomavirus macacae;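 further: Confirmatory-stage PubChem screen for compounds that inhibit SV40 T antigen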
Sequence of Large T antigen (P03070 whole entry): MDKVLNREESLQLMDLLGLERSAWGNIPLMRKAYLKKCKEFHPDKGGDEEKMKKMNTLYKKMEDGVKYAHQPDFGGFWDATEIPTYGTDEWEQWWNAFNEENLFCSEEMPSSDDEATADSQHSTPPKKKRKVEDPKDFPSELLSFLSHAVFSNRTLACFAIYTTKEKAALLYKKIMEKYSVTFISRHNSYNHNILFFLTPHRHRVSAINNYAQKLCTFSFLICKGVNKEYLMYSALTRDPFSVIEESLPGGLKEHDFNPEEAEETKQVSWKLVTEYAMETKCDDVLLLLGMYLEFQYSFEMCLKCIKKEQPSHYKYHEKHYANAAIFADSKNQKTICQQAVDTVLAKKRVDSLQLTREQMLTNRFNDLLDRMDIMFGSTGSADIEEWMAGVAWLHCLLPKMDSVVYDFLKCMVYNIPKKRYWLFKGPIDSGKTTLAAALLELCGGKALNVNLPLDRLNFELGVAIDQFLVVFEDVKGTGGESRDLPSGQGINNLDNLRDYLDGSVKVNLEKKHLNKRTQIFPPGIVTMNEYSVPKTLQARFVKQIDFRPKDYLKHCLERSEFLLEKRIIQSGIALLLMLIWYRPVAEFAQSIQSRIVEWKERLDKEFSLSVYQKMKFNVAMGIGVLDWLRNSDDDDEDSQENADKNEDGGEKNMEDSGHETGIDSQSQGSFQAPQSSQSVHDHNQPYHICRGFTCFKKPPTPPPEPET

[11] = biological target: Induced myeloid leukemia cell differentiation protein Mcl-1 (Homo sapiens, UniProt Q07820); assay type: functional
Sequence of Induced myeloid leukemia cell differentiation protein Mcl-1 (Q07820 whole entry): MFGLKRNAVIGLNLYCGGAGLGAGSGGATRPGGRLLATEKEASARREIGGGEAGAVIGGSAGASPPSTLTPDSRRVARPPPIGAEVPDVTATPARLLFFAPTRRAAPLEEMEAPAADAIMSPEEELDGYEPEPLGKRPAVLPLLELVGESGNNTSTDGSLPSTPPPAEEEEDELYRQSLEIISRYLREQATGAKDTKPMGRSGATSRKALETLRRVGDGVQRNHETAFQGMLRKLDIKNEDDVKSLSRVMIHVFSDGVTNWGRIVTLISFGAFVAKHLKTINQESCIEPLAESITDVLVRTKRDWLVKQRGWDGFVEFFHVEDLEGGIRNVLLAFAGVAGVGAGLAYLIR

[12] = biological target: Genome polyprotein (dengue virus type 2, UniProt P29990); assay: Dengue-2 NS5 methyltransferase inhibitors, primary screen, biochemical, confirmation dose response (AID 588689); assay type: functional
Sequence of Genome polyprotein (P29990 2492-3391 limits assumed): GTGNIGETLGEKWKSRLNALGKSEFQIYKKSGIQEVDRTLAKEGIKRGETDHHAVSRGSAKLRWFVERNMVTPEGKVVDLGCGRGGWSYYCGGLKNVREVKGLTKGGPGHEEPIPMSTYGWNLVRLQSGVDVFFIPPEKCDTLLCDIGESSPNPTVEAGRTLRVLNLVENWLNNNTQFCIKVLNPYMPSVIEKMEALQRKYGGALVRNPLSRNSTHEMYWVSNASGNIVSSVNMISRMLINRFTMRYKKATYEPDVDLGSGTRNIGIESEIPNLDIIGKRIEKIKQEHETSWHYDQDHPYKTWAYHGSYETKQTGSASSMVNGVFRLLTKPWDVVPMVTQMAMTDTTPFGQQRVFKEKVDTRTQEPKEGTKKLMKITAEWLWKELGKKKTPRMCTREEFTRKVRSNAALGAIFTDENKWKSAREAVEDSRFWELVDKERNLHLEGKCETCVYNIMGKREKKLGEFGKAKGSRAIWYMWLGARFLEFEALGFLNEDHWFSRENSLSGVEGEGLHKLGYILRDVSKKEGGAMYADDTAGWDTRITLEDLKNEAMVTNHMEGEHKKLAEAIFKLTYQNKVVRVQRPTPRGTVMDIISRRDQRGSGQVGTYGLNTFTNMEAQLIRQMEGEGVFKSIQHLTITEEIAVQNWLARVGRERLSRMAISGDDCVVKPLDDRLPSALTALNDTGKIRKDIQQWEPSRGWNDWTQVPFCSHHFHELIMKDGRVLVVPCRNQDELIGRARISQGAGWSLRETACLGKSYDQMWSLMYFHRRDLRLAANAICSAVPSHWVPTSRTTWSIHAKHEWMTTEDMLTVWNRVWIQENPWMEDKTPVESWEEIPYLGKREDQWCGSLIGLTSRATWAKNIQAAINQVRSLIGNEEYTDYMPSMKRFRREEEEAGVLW

[13] = biological target: T4, Fatty acid synthase (Homo sapiens, UniProt P49327); assay: FAS thioesterase domain inhibitors, dose response, biochemical, endpoint fluorescence intensity, uHTS hits (AID 624327); assay type: functional;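 further: fluorescence from hydrolysis of an O-methyl fluorescein acyl ester substrate by the enzyme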
T4 sequence (P49327 whole entry, the tested form may be a part): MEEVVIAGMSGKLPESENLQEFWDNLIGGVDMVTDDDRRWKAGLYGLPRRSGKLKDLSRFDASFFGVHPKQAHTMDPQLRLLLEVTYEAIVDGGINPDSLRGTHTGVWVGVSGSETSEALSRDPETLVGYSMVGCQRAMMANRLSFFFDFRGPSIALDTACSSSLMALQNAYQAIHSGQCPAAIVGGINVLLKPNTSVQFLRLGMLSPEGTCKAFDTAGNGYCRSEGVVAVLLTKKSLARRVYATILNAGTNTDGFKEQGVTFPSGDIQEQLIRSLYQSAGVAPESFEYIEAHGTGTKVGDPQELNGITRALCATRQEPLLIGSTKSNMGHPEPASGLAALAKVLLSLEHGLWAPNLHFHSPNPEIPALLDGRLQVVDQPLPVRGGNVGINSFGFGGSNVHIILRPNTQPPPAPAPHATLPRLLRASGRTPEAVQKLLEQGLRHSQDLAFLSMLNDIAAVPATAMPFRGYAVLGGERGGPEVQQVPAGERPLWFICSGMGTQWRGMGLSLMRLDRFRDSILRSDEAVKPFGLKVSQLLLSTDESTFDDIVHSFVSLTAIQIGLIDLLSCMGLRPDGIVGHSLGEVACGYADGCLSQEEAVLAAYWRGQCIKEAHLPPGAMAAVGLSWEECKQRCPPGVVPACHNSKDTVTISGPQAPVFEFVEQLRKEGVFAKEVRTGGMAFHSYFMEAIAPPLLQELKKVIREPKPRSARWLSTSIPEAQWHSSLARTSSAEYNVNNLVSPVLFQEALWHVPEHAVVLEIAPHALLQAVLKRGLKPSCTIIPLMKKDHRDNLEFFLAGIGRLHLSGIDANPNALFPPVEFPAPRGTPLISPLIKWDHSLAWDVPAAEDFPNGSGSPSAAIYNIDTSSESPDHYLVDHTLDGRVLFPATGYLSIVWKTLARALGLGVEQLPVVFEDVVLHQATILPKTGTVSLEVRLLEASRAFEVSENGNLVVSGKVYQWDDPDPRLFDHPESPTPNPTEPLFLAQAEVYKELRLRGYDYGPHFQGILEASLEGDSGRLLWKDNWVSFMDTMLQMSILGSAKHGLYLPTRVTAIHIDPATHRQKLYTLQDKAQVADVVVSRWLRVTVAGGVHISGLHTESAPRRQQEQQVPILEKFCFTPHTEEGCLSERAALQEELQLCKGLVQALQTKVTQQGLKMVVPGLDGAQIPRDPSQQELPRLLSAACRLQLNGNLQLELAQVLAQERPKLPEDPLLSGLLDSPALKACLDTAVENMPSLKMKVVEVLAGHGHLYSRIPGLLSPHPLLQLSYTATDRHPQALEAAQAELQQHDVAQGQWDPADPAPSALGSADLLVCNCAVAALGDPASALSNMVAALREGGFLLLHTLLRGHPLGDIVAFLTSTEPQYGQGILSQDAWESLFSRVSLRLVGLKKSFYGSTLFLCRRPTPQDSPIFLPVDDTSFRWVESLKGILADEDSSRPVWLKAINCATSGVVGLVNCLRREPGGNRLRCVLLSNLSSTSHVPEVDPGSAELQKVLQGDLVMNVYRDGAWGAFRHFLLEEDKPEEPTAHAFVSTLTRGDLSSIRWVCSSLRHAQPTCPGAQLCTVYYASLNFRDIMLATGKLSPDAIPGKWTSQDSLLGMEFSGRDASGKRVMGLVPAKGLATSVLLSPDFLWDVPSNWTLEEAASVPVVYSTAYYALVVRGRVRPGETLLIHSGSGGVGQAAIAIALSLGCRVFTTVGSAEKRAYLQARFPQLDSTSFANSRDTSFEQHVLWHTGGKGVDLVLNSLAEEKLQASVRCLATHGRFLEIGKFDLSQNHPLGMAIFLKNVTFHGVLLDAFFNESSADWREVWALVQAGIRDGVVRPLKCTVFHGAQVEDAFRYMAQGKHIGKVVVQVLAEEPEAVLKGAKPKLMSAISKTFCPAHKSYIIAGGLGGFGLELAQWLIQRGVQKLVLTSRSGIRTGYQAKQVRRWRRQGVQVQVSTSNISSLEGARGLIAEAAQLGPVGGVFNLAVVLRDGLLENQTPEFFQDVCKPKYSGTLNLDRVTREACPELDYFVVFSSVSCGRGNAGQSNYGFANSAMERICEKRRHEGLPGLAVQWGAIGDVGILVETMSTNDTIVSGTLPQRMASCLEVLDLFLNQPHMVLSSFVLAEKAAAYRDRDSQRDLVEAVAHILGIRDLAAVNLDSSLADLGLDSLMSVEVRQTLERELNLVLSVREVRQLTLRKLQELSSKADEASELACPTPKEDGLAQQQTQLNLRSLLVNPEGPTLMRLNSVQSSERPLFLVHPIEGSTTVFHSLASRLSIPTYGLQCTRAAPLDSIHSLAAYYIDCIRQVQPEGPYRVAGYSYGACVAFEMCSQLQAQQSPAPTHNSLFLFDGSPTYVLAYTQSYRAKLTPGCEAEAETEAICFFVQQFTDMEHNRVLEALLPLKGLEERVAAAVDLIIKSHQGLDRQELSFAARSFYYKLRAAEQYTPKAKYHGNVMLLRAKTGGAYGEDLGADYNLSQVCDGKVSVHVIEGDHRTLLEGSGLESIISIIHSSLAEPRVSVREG

[14] = biological target: T4, Fatty acid synthase; assay: FAS thioesterase domain inhibitors, dose response, biochemical, kinetic fluorescence intensity (AID 624326); assay type: functional;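 further: rate of fluorescence rise from hydrolysis of a fluorogenic O-methyl fluorescein ester substrate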
[15] = insulin promoter down-regulators in MIN6 cells, imaging, high-content screening, mouse beta cells (AID 1628); assay type: functional
[16] = cytotoxicity in MIN6 insulinoma cells, dose response, cytotoxicity control, cell-based, mouse insulinoma (AID 2122); assay type: functional;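 further: confirmatory high-throughput counterscreen run to flag cytotoxic compounds; mouse MIN-6 beta cells carrying an insulin promoter eGFP reporter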
[17] = Luminescence Cell-Based Dose Retest to Confirm Inhibitors of Cancer Stem Cells. [Related pubchem assays (depositor defined):AID2717, AID2721]; assay type: functional; details: Homo sapiens
[18] = inhibitors of Vif binding to APOBEC3G peptide, primary screen, biochemical, TR-FRET, GST-Vif 1-94, biotin-A3G peptide, dose response retest (AID 1117319); assay type: functional;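 further: TR-FRET signal of purified GST-Vif binding a biotinylated A3G peptide; inhibitors lower the FRET signal by blocking Vif and A3G binding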

SMILES: COc1cc(CNCCc2ccccc2F)ccc1OCc1ccc(Cl)nc1
IC50 [1]: 28.7 µM (inactive)
EC50 [2]: 2.83 µM (active)
IC50 [3]: 9.47 µM (active)
EC50 [4]: 11.1 µM (inactive)
CC50 [5]: > 40 µM (active)

SMILES: COc1ccc(S(=O)(=O)N2CCCC2)c(Cl)c1Cl
AC50 [6]: 71.3 µM (active)
AC50 [7]: 37.7 µM (active)

EC50 [8]: 5.96 µM (active)
EC50 [9]: 7.94 µM (active)
SMILES: CCN1C(=O)c2cccc3c(S(=O)(=O)Nc4ccccc4OC)ccc1c23

IC50 [10]: 59.9 µM (active)
IC50 [11]: 5.15 µM (active)
IC50 [12]: 59.6 µM (active)
IC50 [13]: 2.23 µM (active)
IC50 [14]: 2.54 µM (active)
SMILES: Cc1nc2ccc(NC(=O)c3cc([N+](=O)[O-])cc([N+](=O)[O-])c3Cl)cc2s1

SMILES: Clc1ccc(CN2CCN(c3ncnc4scc(-c5cccs5)c34)CC2)cc1
IC50 [15]: 2.39 µM (active)
IC50 [16]: 2.12 µM (active)

SMILES: Cn1nc(-c2ccc(Cl)cc2)c2cc(C(=O)NCCCN3CCOCC3)sc21
AC50 [17]: 2.03 µM (active)
IC50 [18]: > 100 µM (active)
CC50 [5]: > 40 µM (active)

SMILES: C[C@H]1c2cccc(O)c2C(=O)C2=C(O)C3(O)C(O)=C(C(N)=O)C(=O)[C@@H](N(C)C)[C@@H]3[C@@H](O)[C@@H]21 (stereo partly specified)
AC50 [6]: 30 µM (active)
AC50 [7]: 1.13 µM (active)
